Measurements reported in ChEMBL document CHEMBL1157124, “Synthesis and anticancer evaluation of alpha-lipoic acid derivatives” (Bioorg Med Chem Lett, 2010).

Columns and labels:
NCI-H460 [1] = experiment: Cytotoxicity against human NCI-H460 cells assessed as growth inhibition at 0.1 ug/ml after 24 hrs by MTT assay; type: functional; conditions: NCI-H460, 24 h, read-out: GI
[2] = Cytotoxicity against human HO8910 cells assessed as growth inhibition at 100 ug/ml after 24 hrs by MTT assay; type: functional; conditions: HO-8910, 24 h, read-out: GI
[3] = Cytotoxicity against human HO8910 cells assessed as growth inhibition at 1 ug/ml after 24 hrs by MTT assay; type: functional; conditions: HO-8910, 24 h, read-out: GI
KB [4] = experiment: Cytotoxicity against human KB cells assessed as growth inhibition at 100 ug/ml after 24 hrs by MTT assay; type: functional; conditions: read-out: GI
KB [5] = experiment: Cytotoxicity against human KB cells assessed as growth inhibition at 10 ug/ml after 24 hrs by MTT assay; type: functional; conditions: read-out: GI
KB [6] = experiment: Cytotoxicity against human KB cells assessed as growth inhibition at 1 ug/ml after 24 hrs by MTT assay; type: functional; conditions: read-out: GI
KB [7] = experiment: Cytotoxicity against human KB cells assessed as growth inhibition at 0.1 ug/ml after 24 hrs by MTT assay; type: functional; conditions: read-out: GI
Bel-7402 [8] = experiment: Cytotoxicity against human Bel7402 cells assessed as growth inhibition at 100 ug/ml after 24 hrs by MTT assay; type: functional; conditions: Bel-7402, 24 h, read-out: GI
Bel-7402 [9] = experiment: Cytotoxicity against human Bel7402 cells assessed as growth inhibition at 10 ug/ml after 24 hrs by MTT assay; type: functional; conditions: Bel-7402, 24 h, read-out: GI
Bel-7402 [10] = experiment: Cytotoxicity against human Bel7402 cells assessed as growth inhibition at 1 ug/ml after 24 hrs by MTT assay; type: functional; conditions: Bel-7402, 24 h, read-out: GI
Bel-7402 [11] = experiment: Cytotoxicity against human Bel7402 cells assessed as growth inhibition at 0.1 ug/ml after 24 hrs by MTT assay; type: functional; conditions: Bel-7402, 24 h, read-out: GI
HT-29 = experiment: Induction of apoptosis in human HT-29 cells; type: functional, cell-based
NCI-H460 [12] = experiment: Cytotoxicity against human NCI-H460 cells assessed as growth inhibition at 100 ug/ml after 24 hrs by MTT assay; type: functional; conditions: NCI-H460, 24 h, read-out: GI
NCI-H460 [13] = experiment: Cytotoxicity against human NCI-H460 cells assessed as growth inhibition at 10 ug/ml after 24 hrs by MTT assay; type: functional; conditions: NCI-H460, 24 h, read-out: GI
NCI-H460 [14] = experiment: Cytotoxicity against human NCI-H460 cells assessed as growth inhibition at 1 ug/ml after 24 hrs by MTT assay; type: functional; conditions: NCI-H460, 24 h, read-out: GI
DU-145 = experiment: Cytotoxicity against human DU145 cells; type: functional, cell-based
[15] = Cytotoxicity against human HO8910 cells assessed as growth inhibition at 0.1 ug/ml after 24 hrs by MTT assay; type: functional; conditions: HO-8910, 24 h, read-out: GI
SMMC-7721 = experiment: Induction of apoptosis in human SMMC7721 cells at 5 mM after 96 hrs; type: functional
FaDu = experiment: Growth inhibition of human FADU cells at 10 uM; type: functional
SCC-9 = experiment: Growth inhibition of human SCC9 cells at 10 uM; type: functional
SCC-25 = experiment: Growth inhibition of human SCC25 cells at 10 uM; type: functional
[16] = Growth inhibition of human Detroit 562 cells at 10 uM; type: functional
[17] = Toxicity in rat; type: organism-based; conditions: in vivo

| SMILES | inhibition of growth at 0.1 µg/mL (NCI-H460 [1]) [%] | inhibition of growth at 100 µg/mL [2] [%] | inhibition of growth at 1 µg/mL [3] [%] | inhibition of growth at 100 µg/mL (KB [4]) [%] | inhibition of growth at 10 µg/mL (KB [5]) [%] | inhibition of growth at 1 µg/mL (KB [6]) [%] | inhibition of growth at 0.1 µg/mL (KB [7]) [%] | inhibition of growth at 100 µg/mL (Bel-7402 [8]) [%] | inhibition of growth at 10 µg/mL (Bel-7402 [9]) [%] | inhibition of growth at 1 µg/mL (Bel-7402 [10]) [%] | EC50 (HT-29) [µM] | inhibition of growth at 100 µg/mL (NCI-H460 [12]) [%] | inhibition of growth at 10 µg/mL (NCI-H460 [13]) [%] | inhibition of growth at 1 µg/mL (NCI-H460 [14]) [%] | other results |
| --- | --- | --- | --- | --- | --- | --- | --- | --- | --- | --- | --- | --- | --- | --- | --- |
| O=C(O)CCCC[C@@H](S)CCS [DIHYDROLIPOIC ACID] | 9.25 | 1.17 | 3.93 | 16.3 | 3.38 | 8.79 | 12 | 0.59 | 5.59 | 6.98 | 250 | 7.84 | 5.02 | 12.2 | inhibition of growth at 0.1 µg/mL (Bel-7402 [11]): 10.4% |
| CS/C=C/C(=O)SCCC(CCCCC(=O)OCCN(C)C)SC(=O)/C=C/SC (configuration not stated) | – | – | – | – | – | – | – | – | – | – | – | – | – | – | IC50 (DU-145): 45 µM |
| O=C(O)CCCCC1CCSS1 (stereo not drawn) [LIPOIC ACID, ALPHA] | 8.71 | 5.11 | 1.05 | 11 | 7.18 | 8.6 | 0.14 | 8.17 | 4.77 | 2.52 | 250 | 5.72 | 2.39 | 4.65 | inhibition of growth at 0.1 µg/mL [15]: 3.39%; Activity (SMMC-7721): 65%; inhibition at 10 µM (FaDu): 50%; inhibition at 10 µM (SCC-9): 50%; inhibition at 10 µM (SCC-25): 50%; inhibition at 10 µM [16]: 50%; LD50 [17]: 2000 mg/kg |
